Reference: patent US10189841B2, “Purinones as ubiquitin-specific protease 1 inhibitors” (Forma Therapeutics, Inc., priority 2015, dated 2019)

molecular target: USP1 (construct USP1 (I-785, GG670, 671AA)/UAF1 (I-677)-Flag) (Homo sapiens (Human), UniProt O94782, G670A/G671A); assay: Ubiquitin-Rhodamine 110 assay for USP1 activity; type: biochemical; settings: USP1/UAF1 25 pM, Ub-Rh110 25 nM, 30 min preincubation
Description: Example 53: Ubitquin-Rhodamine 110 Assay for USP1 Activity
The HTS assay was performed in a final volume of 20 μL in assay buffer containing 20 mM Tris-HCl (pH 8.0, (1M Tris-HCl, pH 8.0 solution; Corning 46-031-CM)), 2 mM CaCl2 (1M Calcium Chloride solution; Sigma #21114) 1 mM GSH (L-Glutathione reduced; Sigma #G4251), 0.01% Prionex ([…] filtered, Sigma #G-0411), and 0.01% Triton X-100. Stock compound solutions were stored at −20° C. as 10 mM in DMSO. Up to 1 month prior to the assay, 2 mM test compounds were pre-dispensed into assay plates (Black, low volume; Corning #3820) and frozen at −20° C. Prestamped assay plates were allowed to come to room temperature on the day of the assay. For the screen, 100 nL of 2 mM was pre-dispensed for a final screening concentration of […] (DMSO(fc)=0.5%). The final concentration of the enzyme (USP1, construct USP1 (I-785, GG670, 671AA)/UAF1 (I-677)-Flag; Viva) in the assay was 100 pM. Final substrate (Ub-Rh110; Ubiquitin-Rhodamine 110, R&D Systems #U-555) concentration was 25 nM with [Ub-Rh110]<<Km. […] Plates were incubated stacked for 45 minutes at room temperature before fluorescence was read on the Envision (Excitation at 485 nm and Emission at 535 nm; Perkin Elmer) or on the PheraSTAR (Excitation at 485 nm and Emission at 535 nm; BMG Labtech)
Nanoliter quantities of either an 8-point or 10-point, 3-fold serial dilution in DMSO was pre-dispensed into assay plates (Perkin Elmer, ProxiPlate-384 F Plus, #6008269) for a final test concentration range of either 25 μM to 11 nM or 25 μM to 1.3 nM, respectively. The final concentration of the enzyme (USP1, construct USP1 (I-785, GG670, 671AA)/UAF1 (I-677)-Flag; Viva) in the assay was 25 pM. Final substrate (Ub-Rh110; Ubiquitin-Rhodamine 110, R&D Systems #U-555) concentration was 25 nM with [Ub-Rh110]<<Km. […] Plates were incubated stacked for 20 minutes at room temperature before 5 μL of stop solution (final concentration of 10 mM citric acid in assay buffer (Sigma, #251275-500G)). Fluorescence was read on the Envision (Excitation at 485 nm and Emission at 535 nm; Perkin Elmer) or on the PheraSTAR (Excitation at 485 nm and Emission at 535 nm; BMG Labtech).
For both assay formats data were reported as percent inhibition compared with control wells based on the following equation: % inh=[1−((FLU−AveLow)/(AveHigh−AveLow))]×100 where FLU=measured Fluorescence, AveLow=average Fluorescence of no enzyme control (n=16), and AveHigh=average Fluorescence of DMSO control (n=16). IC50 values were determined by curve fitting of the standard 4 parameter logistic fitting algorithm included in the Activity Base software package: IDBS XE Designer Model205. Data is fitted using the Levenburg Marquardt algorithm.

Chain of USP1 (construct USP1 (I-785, GG670, 671AA)/UAF1 (I-677)-Flag) (O94782 whole entry G670A/G671A): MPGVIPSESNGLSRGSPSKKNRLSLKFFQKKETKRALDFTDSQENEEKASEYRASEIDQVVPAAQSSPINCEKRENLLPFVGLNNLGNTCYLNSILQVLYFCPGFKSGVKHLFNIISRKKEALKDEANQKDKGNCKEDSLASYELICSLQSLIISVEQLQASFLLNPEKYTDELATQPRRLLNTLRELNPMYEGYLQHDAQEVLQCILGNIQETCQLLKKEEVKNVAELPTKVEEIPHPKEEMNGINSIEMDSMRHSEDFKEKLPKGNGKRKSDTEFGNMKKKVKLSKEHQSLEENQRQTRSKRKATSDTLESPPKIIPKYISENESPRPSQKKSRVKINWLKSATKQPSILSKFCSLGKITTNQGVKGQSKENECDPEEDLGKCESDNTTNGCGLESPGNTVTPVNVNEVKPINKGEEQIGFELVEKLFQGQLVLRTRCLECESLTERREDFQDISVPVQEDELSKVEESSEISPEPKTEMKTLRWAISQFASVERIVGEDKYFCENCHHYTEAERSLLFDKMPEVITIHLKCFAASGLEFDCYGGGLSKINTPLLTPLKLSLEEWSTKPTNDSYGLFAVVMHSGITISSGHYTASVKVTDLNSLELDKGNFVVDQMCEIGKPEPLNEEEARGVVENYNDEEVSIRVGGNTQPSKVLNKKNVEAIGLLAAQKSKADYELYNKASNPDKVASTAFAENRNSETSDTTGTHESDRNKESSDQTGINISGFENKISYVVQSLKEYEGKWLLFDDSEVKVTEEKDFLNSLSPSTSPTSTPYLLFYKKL
Chain of USP1 (construct USP1 (I-785, GG670, 671AA)/UAF1 (I-677)-Flag) (Q8TAF3 whole entry partner): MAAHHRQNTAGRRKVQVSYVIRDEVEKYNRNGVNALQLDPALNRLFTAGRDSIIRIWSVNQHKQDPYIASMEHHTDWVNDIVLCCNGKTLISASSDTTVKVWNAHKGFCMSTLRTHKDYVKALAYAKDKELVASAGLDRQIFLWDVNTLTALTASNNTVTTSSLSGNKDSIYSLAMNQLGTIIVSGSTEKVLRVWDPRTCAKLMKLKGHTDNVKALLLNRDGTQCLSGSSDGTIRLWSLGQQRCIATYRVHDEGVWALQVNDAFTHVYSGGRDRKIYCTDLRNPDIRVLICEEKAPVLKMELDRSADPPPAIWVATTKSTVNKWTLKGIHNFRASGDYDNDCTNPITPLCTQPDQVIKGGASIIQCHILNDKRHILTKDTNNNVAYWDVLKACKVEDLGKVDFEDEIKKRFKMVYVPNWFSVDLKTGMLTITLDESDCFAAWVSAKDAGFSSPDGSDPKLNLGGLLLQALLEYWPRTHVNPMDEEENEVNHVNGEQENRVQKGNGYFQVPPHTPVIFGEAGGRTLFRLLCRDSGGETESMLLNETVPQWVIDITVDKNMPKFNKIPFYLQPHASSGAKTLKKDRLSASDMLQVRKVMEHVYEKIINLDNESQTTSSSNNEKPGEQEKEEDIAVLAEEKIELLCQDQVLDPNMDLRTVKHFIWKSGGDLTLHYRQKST

| SMILES | IC50 [nM] |
| --- | --- |
| CC(C)c1ccccc1-c1ncc2c(n1)n(Cc1ccc(-c3nccn3C(C)C)cc1)c(=O)n2C [Compound I-497, 9-(4-(1-isopropyl-1H-imidazol-2-yl)benzyl)-2-(2-isopropylphenyl)-7-methyl-7,9-dihydro-8H-purin-8-one] | < 50 |
| CC(=O)N1CCC(c2cnc(-c3ccc(Cn4c(=O)[nH]c5cnc(-c6ccccc6C(C)C)nc54)cc3)n2C)CC1 [Compound I-473, 9-(4-(5-(1-acetylpiperidin-4-yl)-1-methyl-lH-imidazol-2-yl)benzyl)-2-(2-isopropylphenyl)-7,9-dihydro-8H-purin-8-one] | < 50 |
| CC(C)c1ccccc1-c1ncc2[nH]c(=O)n(Cc3ccc(C(=O)N4CC(O)C4)cc3)c2n1 [Compound I-377, 9-(4-(3-hydroxyazetidine-1-carbonyl)benzyl)-2-(2-isopropylphenyl)-7,9-dihydro-8H-purin-8-one] | > 2000 |
| CC(C)c1ccccc1-c1ncc2[nH]c(=O)n(Cc3ccc(-c4nnn[nH]4)cc3)c2n1 [Compound I-513, 9-(4-(1H-tetrazol-5-yl)benzyl)-2-(2-isopropylphenyl)-7,9-dihydro-8H-purin-8-one] | > 2000 |
| Cn1cc(C(F)(F)F)nc1-c1ccc(Cn2c(=O)[nH]c3cnc(-c4cccnc4NC4CCC4)nc32)cc1 [Compound I-316, 2-(2-(cyclobutylamino)pyridin-3-yl)-9-(4-(1-methyl-4-(trifluoromethyl)-1H-imidazol-2-yl)benzyl)-7,9-dihydro-8H-purin-8-one] | 50 to 200 |
| CC(C)c1ncccc1-c1ncc2[nH]c(=O)n([C@@H](C)c3ccc(-n4cccn4)cc3)c2n1 [Compound I-13, (S)-9-(1-(4-(1H-pyrazol-1-yl)phenyl)ethyl)-2-(2-isopropylpyridin-3-yl)-7,9-dihydro-8H-purin-8-one] | 200 to 2000 |
| CC(C)c1ccccc1-c1ncc2c(n1)n(Cc1ccc(OCC3CCCN(C)C3)cc1)c(=O)n2C (stereo not shown) [Compound I-230, 2-(2-isopropylphenyl)-7-methyl-9-(4-((1-methylpiperidin-3-yl)methoxy)benzyl)-7,9-dihydro-8H-purin-8-one] | 200 to 2000 |
| COCCNC(=O)N(C)c1ccc(Cn2c(=O)n(C)c3cnc(-c4ccccc4C(C)C)nc32)cc1 [Compound I-485, 1-(4-((2-(2-isopropylphenyl)-7-methyl-8-oxo-7,8-dihydro-9H-purin-9-yl)methyl)phenyl)-3-(2-methoxyethyl)-1-methylurea] | > 2000 |
| CC(C)c1ccccc1-c1ncc2[nH]c(=O)n(Cc3ccc(C(=O)N(C)CC(=O)N(C)C)cc3)c2n1 [Compound I-380, N-(2-(dimethylamino)-2-oxoethyl)-4-((2-(2-isopropylphenyl)-8-oxo-7,8-dihydro-9H-purin-9-yl)methyl)-N-methylbenzamide] | 50 to 200 |
| CC(C)c1ccccc1-c1ncc2[nH]c(=O)n(Cc3ccc4c(c3)CCN(C)C4=O)c2n1 [Compound I-187, 6-((2-(2-isopropylphenyl)-8-oxo-7,8-dihydro-9H-purin-9-yl)methyl)-2-methyl-3,4-dihydroisoquinolin-1(2H)-one] | < 50 |
| CCCOc1ncccc1-c1ncc2[nH]c(=O)n(Cc3ccc(-c4nc(C(F)(F)F)cn4C)cc3)c2n1 [Compound I-413, 9-(4-(1-methyl-4-(trifluoromethyl)-1H-imidazol-2-yl)benzyl)-2-(2-propoxypyridin-3-yl)-7,9-dihydro-8H-purin-8-one] | < 50 |
| CO[C@H](C)c1ccccc1-c1ncc2[nH]c(=O)n(Cc3ccc(-c4nc(C(F)(F)F)cn4C)cc3)c2n1 [Compound I-55, (R)-2-(2-(1-methoxyethyl)phenyl)-9-(4-(1-methyl-4-(trifluoromethyl)-1H-imidazol-2-yl)benzyl)-7,9-dihydro-8H-purin-8-one] | < 50 |
| CC(C)c1ccccc1-c1ncc2c(n1)n(Cc1ccc(-n3cccn3)cc1)c(=O)n2CCN(C)C [Compound I-107, 9-(4-(1H-pyrazol-1-yl)benzyl)-7-(2-(dimethylamino)ethyl)-2-(2-isopropylphenyl)-7,9-dihydro-8H-purin-8-one] | 200 to 2000 |
| CC1CCCN(C(=O)c2ccc(Cn3c(=O)[nH]c4cnc(-c5ccccc5C(C)C)nc43)cc2)C1 (stereo not shown) [Compound I-399, 2-(2-isopropylphenyl)-9-(4-(3-methylpiperidine-1-carbonyl)benzyl)-7,9-dihydro-8H-purin-8-one] | < 50 |
| CC(C)c1ccccc1-c1ncc2[nH]c(=O)n(Cc3ccc(-c4nc(C(F)(F)F)nn4C)cc3)c2n1 [Compound I-209, 2-(2-isopropylphenyl)-9-(4-(1-methyl-3-(trifluoromethyl)-1H-1,2,4-triazol-5-yl)benzyl)-7,9-dihydro-8H-purin-8-one] | < 50 |
| CC(C)c1ccccc1-c1ncc2[nH]c(=O)n(CCC3CCN(c4cccnc4)CC3)c2n1 [Compound I-161, 2-(2-isopropylphenyl)-9-(2-(1-(pyridin-3-yl)piperidin-4-yl)ethyl)-7,9-dihydro-8H-purin-8-one] | 200 to 2000 |
| Cc1nnc(-c2ccc(Cn3c(=O)[nH]c4cnc(-c5cccc(F)c5C(C)C)nc43)cc2)o1 [Compound I-189, 2-(3-fluoro-2-isopropylphenyl)-9-(4-(5-methyl-1,3,4-oxadiazol-2-yl)benzyl)-7,9-dihydro-8H-purin-8-one] | < 50 |
| Cc1cn(C)c(-c2ccc(Cn3c(=O)[nH]c4cnc(-c5ccccc5C(C)C)nc43)cn2)n1 [Compound I-203, 9-((6-(1,4-dimethyl-1H-imidazol-2-yl)pyridin-3-yl)methyl)-2-(2-isopropylphenyl)-7,9-dihydro-8H-purin-8-one] | < 50 |
| Cn1cc(C(F)(F)F)nc1-c1ccc(Cn2c(=O)n(C)c3cnc(-c4cccnc4N4CCOCC4)nc32)cc1 [Compound I-133, 7-methyl-9-(4-(1-methyl-4-(trifluoromethyl)-1H-imidazol-2-yl)benzyl)-2-(2-morpholinopyridin-3-yl)-7,9-dihydro-8H-purin-8-one] | 200 to 2000 |
| Cn1cc(C(F)(F)F)nc1-c1ccc(Cn2c(=O)[nH]c3cnc(-c4cccnc4NC4CCOCC4)nc32)cc1 [Compound I-321, 9-(4-(1-methyl-4-(trifluoromethyl)-1H-imidazol-2-yl)benzyl)-2-(2-((tetrahydro-2H-pyran-4-yl)amino)pyridin-3-yl)-7,9-dihydro-8H-purin-8-one] | 200 to 2000 |
| Cn1cc(C(F)(F)F)nc1-c1ccc(Cn2c(=O)n(C)c3cnc(-c4cccnc4OC4CC4)nc32)cc1 [Compound I-137, 2-(2-cyclopropoxypyridin-3-yl)-7-methyl-9-(4-(1-methyl-4-(trifluoromethyl)-1H-imidazol-2-yl)benzyl)-7,9-dihydro-8H-purin-8-one] | < 50 |
| CC(C)c1ccccc1-c1ncc2c(n1)n(Cc1ccc(-c3nccn4ccnc34)cc1)c(=O)n2C [Compound I-289, 9-(4-(imidazo[1,2-a]pyrazin-8-yl)benzyl)-2-(2-isopropylphenyl)-7-methyl-7,9-dihydro-8H-purin-8-one] | < 50 |
| Cc1cc(C(F)(F)F)nn1-c1ccc(Cn2c(=O)[nH]c3cnc(-c4cccnc4C(C)C)nc32)cc1 [Compound I-40, 2-(2-isopropylpyridin-3-yl)-9-(4-(5-methyl-3-(trifluoromethyl)-1H-pyrazol-1-yl)benzyl)-7,9-dihydro-8H-purin-8-one] | < 50 |
| COCCN(C)C(=O)c1ccc(Cn2c(=O)[nH]c3cnc(-c4ccccc4C(C)C)nc32)cc1 [Compound I-407, 4-((2-(2-isopropylphenyl)-8-oxo-7,8-dihydro-9H-purin-9-yl)methyl)-N-(2-methoxyethyl)-N-methylbenzamide] | 50 to 200 |
| CC(C)c1ccccc1-c1ncc2[nH]c(=O)n(Cc3ccc(C(=O)N4CC5(CCOC5)C4)cc3)c2n1 [Compound I-394, 9-(4-(6-oxa-2-azaspiro[3.4]octane-2-carbonyl)benzyl)-2-(2-isopropylphenyl)-7,9-dihydro-8H-purin-8-one] | 200 to 2000 |
